Laboratory results reported in patent US20040143025A1, “Carbon monoxide generating compunds for treatment of vascular, inflammatory and immune disorders” (priority 2002, published 2004).

Key:
[1] = tested on: rat liver; assay: Histologic severity of I/R injury, Banff criteria; set-up: species or system Sprague Dawley (SD) rats; conditions: CO, scale 1-4
Description: Histology. Liver specimens were fixed in a 10% buffered formalin solution and embedded in paraffin. Sections were made at 4 μm and stained with H&E. The histologic severity of I/R injury was graded using International Banff Criteria (Int'l Banff Schema Conference Worksheet, The Third Int'l Banff Conference on Allograft Pathology, June 21-25 (1995)). Using these criteria, lobular disarray and ballooning changes are graded from 1-4, where no change is given a score of 1 and severe disarray or ballooning changes are given a score of 4.

[2] = mice exposed to gaseous CO at 500 ppm
Method: To examine the effect of gaseous CO on the immune system, C57/BL6 mice (B6, Jackson Laboratory, Bar Harbor, Me.) were first exposed to 500 ppm CO in air (Praxair, Danbury, Conn.) for one hour in a sealed chamber before injection of lipopolysaccharide (LPS) (0.3 mg/kg, i.v., Sigma, St Louis, Mo.). After injection, they were exposed to another hour in the CO chamber. Blood samples were collected one hour after LPS injection (through the aortic artery) and the COHb level in whole blood was measured by a whole blood AVOXimeter 4000 (A-VOX Systems, San Antonio, Tex.). Serum samples were separated and were kept at −80° C. until analysis. Serum TNF-α was measured by sandwich ELISA (Biosource, Camarillo, Calif.).
To reveal the therapeutic potential of CO generators, methylene chloride (MC, Sigma, St. Louis, Mo.) was selected as a lead compound. Different concentrations of MC were prepared by using olive oil as a solvent. Mice were treated with MC at 5 mg/kg., 50 mg/kg, and 500 mg/kg, p.o., one hour before LPS administration.

[3] = cited from earlier work
[4] = tested on: LEW.1W aortic allografts in LEW.1A rats; assay: Chronic aorta allograft rejection model, morphometry of intima thickness; assay type: in vivo, rat; conditions: day 30
Method: Animals and aorta transplantation. Transplantations were performed using 250 g inbred male Lewis 1W rats (LEW. 1W, haplotype RT1^u) as donors and LEW.1A rats (haplotype RT1^a) as recipients (CERJ, Le Genest St. Isle, France). These animals are completely mismatched for the entire MHC region. Animal procedures followed European guidelines for animal experimentation. The descending thoracic aortas were harvested, perfused with saline and anastomosed to the recipient's abdominal aorta below the renal arteries and above the aortic bifurcation. Anastomosis was performed in a termino-lateral fashion and the recipient abdominal aorta was ligated between the two-graft anastomosis. […]
MC (Sigma, St. Louis, Mo.) was diluted in olive oil and administered orally on a daily basis (from day 0 to 30) at 500 mg/kg. […] COHb levels were evaluated in heparinized venous blood using the VOXimeter sensor (A-VOX Systems, San Antonio, Tex.) and expressed as the percentage of total hemoglobin. Bicarbonates, soluble CO2, total CO2 and pH were measured using standard clinical biochemistry techniques (Laboratory of Biochemistry, University Hospital of Nantes).
Recombinant adenovirus and gene transfer into the aorta. […] Quantification of infectious adenoviral particles was determined by counting the number of spots (corresponding to individual viral replication events) on infected 293 cells. […]

SMILES | Banff score of I/R injury ([1]; 1 h reperfusion) | Banff score of I/R injury ([1]; 2 h reperfusion) | O2Hb levels [2] [%] | HbCO generated ([3]; 500 mg/kg MC per os) | half life of metabolism ([3]; 500 mg/kg MC per os) | toxicity on repeated administration ([3]; 500 mg/kg for 4 weeks, rats) | maximal COHb values in venous or aortic blood ([3]; 500 mg/kg orally) [% COHb] | portion of the compound converted into carbon monoxide ([3]; rat, in vivo) | intimal thickening (mean±SEM) ([4]; allogeneic aortic grafts, MC 500 mg/kg orally daily, adenoviruses 10^10 IP into donor aorta) [%] | infiltrating cells in adventitia (HES) [4]
[C-]#[O+] [CO, carbon monoxide] | 1.2±0.31 | 2.0±0.12 | 79.18±1.569 | – | – | – | – | – | – | –
ClCCl [methylene chloride] | – | – | – | around 10% | about 3 h | did not induce major body weight, biochemical or histological changes | 10 | 50-80% | 8.3±4.5 | moderate reduction
